Results: paper PMC7134596 (Febs Letters, 2004)

Biological target: SARS‐CoV M^pro (Severe acute respiratory syndrome-related coronavirus, UniProt P0C6X7)
Assay: biochemical

In the case of CC1=C(C(=O)OCCc2ccccc2)C(c2ccccc2[N+](=O)[O-])C2=C(CCCC2=O)N1 (stereo not shown) [MP576, 3‐quinolinecarboxylic acid, 1,4,5,6,7,8‐hexahydro‐2‐methyl‐4‐(2‐nitrophenyl)‐5‐oxo‐, 2‐phenylethyl ester], the Ki is reported as 2900 ± 300 nM.
